Results from patent publication US20120121540A1 (priority 2007, published 2012).

Assay: HCV replicon assay (luciferase reporter, ET cell line)
Type: cell-based
Conditions: Hepatitis C virus, HCV replicon luciferase activity in ET cells
Procedure, shortened: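 EC50 and, via WST-1 cytotoxicity, TC50 were fitted with a Hill-coefficient equation to % inhibition across 10 two-fold dilutions. Compounds at 0.1 nM-[…] with 0.5% DMSO were applied 24 h post-seeding to replicon-bearing ET cells (luc-ubi-neo/NS3-5B, adaptive mutations). Firefly luciferase signal was measured after 48-72 h.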

For `O=C(c1nc2c(C(F)(F)F)cc(-c3cc[nH]c3)cn2c1Cl)N1CCC(c2cccc(F)c2)C1` (centres unmarked) [Compound 524, [3-Chloro-6-(1H-pyrrol-3-yl)-8-trifluoromethyl-imidazo[1,2-a]pyridin-2-yl]-[3-(3-fluoro-phenyl)-pyrrolidin-1-yl]methanone], which inhibition at 10 µM is on record?
Its inhibition at 10 µM is 91%.

With `O=C(c1nc2c(C(F)(F)F)cc(-c3c[nH]c4ccccc34)cn2c1Cl)N1CCC(c2cccc(F)c2)C1` (centres unmarked) [Compound 525, [3-Chloro-6-(1H-indol-3-yl)-8-trifluoromethyl-imidazo[1,2-a]pyridin-2-yl]-[3-(3-fluoro-phenyl)-pyrrolidin-1-yl]methanone] as the compound, how does the inhibition at 10 µM read?
The inhibition at 10 µM was 23.4%.

Which inhibition at 10 µM does the source give for `O=C(c1nc2c(C(F)(F)F)cc(-c3ccoc3)cn2c1Cl)N1CCN(c2ccccc2F)CC1` [Compound 529, (3-Chloro-6-furan-3-yl-8-trifluoromethyl-imidazo[1,2-a]pyridine-2-yl)-[4-(2-fluoro-phenyl)-piperazin-1-yl]-methanone] here?
The inhibition at 10 µM was 78.9%.

Which inhibition at 10 µM does the source give for `O=C(c1nc2c(C(F)(F)F)cc(-c3ccoc3)cn2c1Cl)N1CCN(c2ccc(F)cc2)CC1` [Compound 530, (3-Chloro-6-furan-3-yl-8-trifluoromethyl-imidazo[1,2-a]pyridine-2-yl)-[4-(4-fluoro-phenyl)-piperazin-1-yl]-methanone] here?
The inhibition at 10 µM was 80.3%.

For `O=C(c1nc2c(C(F)(F)F)cc(-c3ccoc3)cn2c1Cl)N1CCN(c2cccc(F)c2)CC1` [Compound 531, (3-Chloro-6-furan-3-yl-8-trifluoromethyl-imidazo[1,2-a]pyridine-2-yl)-[4-(3-fluoro-phenyl)-piperazin-1-yl]-methanone], which inhibition at 10 µM is on record?
The inhibition at 10 µM was 79.3%.

Which inhibition at 10 µM does the source give for `O=C(c1nc2c(C(F)(F)F)cc(-c3ccoc3)cn2c1Cl)N1CCN(c2ccccn2)CC1` [Compound 532, (3-Chloro-6-furan-3-yl-8-trifluoromethyl-imidazo[1,2-a]pyridine-2-yl)-[4-pyridin-2-yl-piperazin-1-yl]-methanone] here?
The inhibition at 10 µM was 79.1%.

Which inhibition at 10 µM does the source give for `O=C(c1nc2c(C(F)(F)F)cc(-c3ccoc3)cn2c1Cl)N1CCN(c2ccncc2)CC1` [Compound 533, (3-Chloro-6-furan-3-yl-8-trifluoromethyl-imidazo[1,2-a]pyridine-2-yl)-[4-pyridin-4-yl-piperazin-1-yl]-methanone] here?
Its inhibition at 10 µM is 23.4%.

For `O=C(c1nc2c(C(F)(F)F)cc(-c3ccoc3)cn2c1Cl)N1CCN(c2ccccc2)CC1` [Compound 534, (3-Chloro-6-furan-3-yl-8-trifluoromethyl-imidazo[1,2-a]pyridine-2-yl)-(4-phenyl-piperazin-1-yl)-methanone], which inhibition at 10 µM is on record?
The inhibition at 10 µM was 77.6%.

Which inhibition at 10 µM does the source give for `O=C(c1nc2c(C(F)(F)F)cc(-c3ccoc3)cn2c1Cl)N1CCC(c2ccccc2)CC1` [Compound 535, (3-Chloro-6-furan-3-yl-8-trifluoromethyl-imidazo[1,2-a]pyridine-2-yl)-(4-phenyl-piperidin-1-yl)-methanone] here?
Its inhibition at 10 µM is 86.6%.

Which inhibition at 10 µM does the source give for `O=C(c1nc2c(C(F)(F)F)cc(-c3ccoc3)cn2c1Cl)N1CCN(c2nccs2)CC1` [Compound 536, (3-Chloro-6-furan-3-yl-8-trifluoromethyl-imidazo[1,2-a]pyridine-2-yl)-(4-thiazol-2-yl-piperazin-1-yl)-methanone] here?
Its inhibition at 10 µM is 95.8%.

For `O=C(c1nc2c(C(F)(F)F)cc(-c3ccoc3)cn2c1Cl)N1CCN(c2cnccn2)CC1` [Compound 537], which inhibition at 10 µM is on record?
The inhibition at 10 µM was 61%.

Which inhibition at 10 µM does the source give for `O=C(c1nc2c(C(F)(F)F)cc(-c3ccoc3)cn2c1Cl)N1CCN(c2ccc(F)c(F)c2)CC1` [Compound 538] here?
Its inhibition at 10 µM is 78.3%.

For `O=C(c1nc2c(C(F)(F)F)cc(-c3ccoc3)cn2c1Cl)N1CCN(c2ccc(C(F)(F)F)cc2)CC1` [Compound 539], which inhibition at 10 µM is on record?
Its inhibition at 10 µM is 78.9%.

For `N#Cc1ccccc1C1CCN(C(=O)c2nc3c(C(F)(F)F)cc(-c4ccoc4)cn3c2Cl)CC1` [Compound 540, 2-[1-(3-Chloro-6-furan-3-yl-8-trifluoromethyl-imidazo[1,2-a]pyridine-2-carbonyl)-piperidin-4-yl]-benzonitrile], which inhibition at 10 µM is on record?
Its inhibition at 10 µM is 98.6%.

For `O=C(c1nc2c(C(F)(F)F)cc(-c3ccoc3)cn2c1Cl)N1CCC(c2ccccc2Cl)CC1` [Compound 541, (3-Chloro-6-furan-3-yl-8-trifluoromethyl-imidazo[1,2-a]pyridin-2-yl)-[4-(2-chloro-phenyl)-piperidin-1-yl]-methanone], which inhibition at 10 µM is on record?
The inhibition at 10 µM was 89.7%.

With `Cc1ccccc1C1CCN(C(=O)c2nc3c(C(F)(F)F)cc(-c4ccoc4)cn3c2Cl)CC1` [Compound 542, (3-Chloro-6-furan-3-yl-8-trifluoromethyl-imidazo[1,2-a]pyridin-2-yl)-(4-o-tolyl-piperidin-1-yl)-methanone] as the compound, how does the inhibition at 10 µM read?
Its inhibition at 10 µM is 72.4%.

With `O=C(c1nc2c(C(F)(F)F)cc(-c3ccoc3)cn2c1Cl)N1CCN(c2cccnc2)CC1` [Compound 543, (3-Chloro-6-furan-3-yl-8-trifluoromethyl-imidazo[1,2-a]pyridin-2-yl)-(4-pyridin-3-yl-piperazin-1-yl)-methanone] as the compound, how does the inhibition at 10 µM read?
Its inhibition at 10 µM is 91.2%.

For `O=C(c1nc2c(C(F)(F)F)cc(-c3ccoc3)cn2c1Cl)N1CCCCC1c1ccccc1F` (centres unmarked) [Compound 544, (3-Chloro-6-furan-3-yl-8-trifluoromethyl-imidazo[1,2-a]pyridin-2-yl)-[2-(2-fluoro-phenyl)-piperidin-1-yl)-methanone], which inhibition at 10 µM is on record?
The inhibition at 10 µM was 75.4%.

For `O=C(c1nc2c(C(F)(F)F)cc(-c3ccoc3)cn2c1Cl)N1CCCCC1c1cccc(F)c1` (centres unmarked) [Compound 545, (3-Chloro-6-furan-3-yl-8-trifluoromethyl-imidazo[1,2-a]pyridin-2-yl)-[2-(3-fluoro-phenyl)-piperidin-1-yl)-methanone], which inhibition at 10 µM is on record?
The inhibition at 10 µM was 70.2%.

Which inhibition at 10 µM does the source give for `O=C(c1nc2c(C(F)(F)F)cc(-c3ccoc3)cn2c1Cl)N1CCCC(c2ccccc2F)C1` (centres unmarked) [Compound 547, (3-Chloro-6-furan-3-yl-8-trifluoromethyl-imidazo[1,2-a]pyridin-2-yl)-[3-(2-fluoro-phenyl)-piperidin-1-yl)-methanone] here?
Its inhibition at 10 µM is 94.7%.

For `O=C(c1nc2c(C(F)(F)F)cc(-c3ccoc3)cn2c1Cl)N1CCCC(c2ccc(F)cc2)C1` (centres unmarked) [Compound 548, (3-Chloro-6-furan-3-yl-8-trifluoromethyl-imidazo[1,2-a]pyridin-2-yl)-[3-(4-fluoro-phenyl)-piperidin-1-yl)-methanone], which inhibition at 10 µM is on record?
Its inhibition at 10 µM is 91.2%.

For `O=C(c1nc2c(C(F)(F)F)cc(-c3ccoc3)cn2c1Cl)N1CCCC(c2cccc(F)c2)C1` (centres unmarked) [Compound 549, (3-Chloro-6-furan-3-yl-8-trifluoromethyl-imidazo[1,2-a]pyridin-2-yl)-[3-(3-fluoro-phenyl)-piperidin-1-yl)-methanone], which inhibition at 10 µM is on record?
The inhibition at 10 µM was 94.3%.

For `COc1ccccc1C1CCN(C(=O)c2nc3c(C(F)(F)F)cc(-c4ccoc4)cn3c2Cl)CC1` [Compound 550, (3-Chloro-6-furan-3-yl-8-trifluoromethyl-imidazo[1,2-a]pyridin-2-yl)-[4-(2-methoxy-phenyl)-piperidin-1-yl)-methanone], which inhibition at 10 µM is on record?
Its inhibition at 10 µM is 64.8%.

For `O=C(c1nc2c(C(F)(F)F)cc(-c3ccoc3)cn2c1Cl)N1CCN(c2noc3ccccc23)CC1` [Compound 551, (4-Benzo[d]isoxazol-3-yl-piperazin-1-yl)-(3-Chloro-6-furan-3-yl-8-trifluoromethyl-imidazo[1,2-a]pyridine-2-yl)-methanone], which inhibition at 10 µM is on record?
Its inhibition at 10 µM is 38.5%.

With `O=C(c1nc2c(C(F)(F)F)cc(-c3ccoc3)cn2c1Cl)N1CCC(n2c(=O)[nH]c3ccccc32)CC1` [Compound 552, 1-[1-(3-Chloro-6-furan-3-yl-8-trifluoromethyl-imidazo[1,2-a]pyridine-2-carbonyl)-piperidin-4-yl]-1,3-dihydro-benzoimidazol-2-one] as the compound, how does the inhibition at 10 µM read?
The inhibition at 10 µM was 6%.

Which inhibition at 10 µM does the source give for `O=C(c1nc2c(C(F)(F)F)cc(-c3ccoc3)cn2c1Cl)N1CCC(n2cc(-c3ccccc3)[nH]c2=O)CC1` [Compound 553, 1-[1-(3-Chloro-6-furan-3-yl-8-trifluoromethyl-imidazo[1,2-a]pyridine-2-carbonyl)-piperidin-4-yl]-4-phenyl-1,3-dihydro-imidazol-2-one] here?
The inhibition at 10 µM was 43.6%.

With `O=C(NCCc1ccccn1)c1nc2c(C(F)(F)F)cc(-c3ccoc3)cn2c1Cl` [Compound 554, 3-Chloro-6-furan-3-yl-8-trifluoromethyl-imidazo[1,2-a]pyridine-2-carboxylic acid (2-pyridin-2-yl-ethyl)-amide] as the compound, how does the inhibition at 10 µM read?
Its inhibition at 10 µM is 97.4%.

With `O=C(c1nc2c(C(F)(F)F)cc(-c3ccoc3)cn2c1Cl)N1CC=C(c2ccccc2F)CC1` [Compound 555, (3-Chloro-6-furan-3-yl-8-trifluoromethyl-imidazo[1,2-a]pyridin-2-yl)-[4-(2-fluoro-phenyl)-3,6-dihydro-2H-pyridin-1-yl)-methanone] as the compound, how does the inhibition at 10 µM read?
The inhibition at 10 µM was 95.5%.

With `O=C(c1nc2c(C(F)(F)F)cc(-c3ccoc3)cn2c1Cl)N1CCC(c2nccs2)CC1` [Compound 556, (3-Chloro-6-furan-3-yl-8-trifluoromethyl-imidazo[1,2-a]pyridin-2-yl)-(4-thiazol-2-yl-piperidin-1-yl)-methanone] as the compound, how does the inhibition at 10 µM read?
The inhibition at 10 µM was 99.5%.

For `O=C(c1nc2c(C(F)(F)F)cc(-c3ccoc3)cn2c1Cl)N1CCC(c2cscn2)CC1` [Compound 557, (3-Chloro-6-furan-3-yl-8-trifluoromethyl-imidazo[1,2-a]pyridin-2-yl)-(4-thiazol-4-yl-piperidin-1-yl)-methanone], which inhibition at 10 µM is on record?
The inhibition at 10 µM was 93%.

Which inhibition at 10 µM does the source give for `O=C(c1nc2c(C(F)(F)F)cc(-c3ccoc3)cn2c1Cl)N1CC=C(c2c[nH]cn2)CC1` [Compound 558, (3-Chloro-6-furan-3-yl-8-trifluoromethyl-imidazo[1,2-a]pyridin-2-yl)-[4-(1H-imidazol-4-yl)-3,6-dihydro-2H-pyridin-1-yl]-methanone] here?
Its inhibition at 10 µM is 89.3%.

For `O=C(c1nc2c(C(F)(F)F)cc(-c3ccoc3)cn2c1Cl)N1CC=C(c2nccs2)CC1` [Compound 559, (3-Chloro-6-furan-3-yl-8-trifluoromethyl-imidazo[1,2-a]pyridine-2-yl)-(4-thiazol-2-yl-3,6-dihydro-2H-pyridin-1-yl)-methanone], which inhibition at 10 µM is on record?
Its inhibition at 10 µM is 99.1%.
